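Step 1: Grow cells in 96-well plates. Step 2: Expose to compound for 48 hours at 5 concentrations. Step 3: Interpolate endpoints linearly; if unreached, use highest concentration. GI50 = concentration required for 50% inhibition of growth. At the TGI there is no net growth.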

Common to all, as to test: growth of human tumour cells (NCI), 48 h
In assay [1] the test system is MDA-MB-435.
Assay [2] deals with NCI/ADR-RES ovarian.
Assay [3] relates to ACHN renal.
Assay [4] deals with MDA-N.
For assay [5], the system named is DU-145 prostate.
Assay [6] has as its system MDA-MB-231 breast.
Assay [7] deals with HCT-116 colon.
In assay [8] the test system is MALME-3M melanoma.
Assay [9] deals with A498 renal.
Assay [10] relates to M19-MEL melanoma.
The subject of assay [11] is DMS 114 small cell lung.
The subject of assay [12] is SNB-78 CNS.

For `[N-]=[N+]=C1N=CN=C1c1ncn[nH]1`, the TGI in assay [1], in [2], in assay [3], in [4], in [5] and in [6] was > 100 µM in each case. Further, the TGI in [7], in assay [8] and in assay [9] was > 100 µM in each case.

Regarding `C[Si](C)(OCCS(=O)(=O)O)C1(Cc2cccc3ccccc23)S(=O)(=O)OCCOS1(=O)=O`, the TGI in assay [1] was 43 µM; in assay [2] it was > 100 µM; in [3], 51.9 µM; in assay [4] it was 41.9 µM; in [5], 37.4 µM; in [6], 43.3 µM. The TGI in assay [7] stood at 37.8 µM; in assay [9], 30.8 µM.

In the case of `CCOP(=O)(OCC)/C(C#N)=C/c1cn(C)cn1`, the TGI in [1], in assay [2], in [3], in [4], in assay [6] and in assay [8] was > 100 µM each time. For the same compound, in assay [9], the TGI was > 100 µM.

Take `N[C@H](C(=O)O)[C@H]1ON=C(Cl)[C@@H]1O`: the TGI in [10] was > 550 µM; in assay [2] it was > 469 µM; in assay [11] it was > 422 µM; in assay [7] it was > 550 µM; in assay [12] it was > 550 µM; in assay [8], > 255 µM. In [9], this compound came in with a TGI of 137 µM. In addition, the GI50 in assay [2] is 15.3 µM; in assay [7], 4.4 µM; in assay [8], 40.2 µM.

For the compound `C[C@]12CCC(=O)C=C1CC[C@@H]1[C@@H]2[C@@H](O)C[C@@]2(C)[C@H]1CC[C@]2(O)C(=O)COC(=O)COCC(=O)O`, the TGI in [10], in assay [3], in assay [11], in assay [7], in [12] and in assay [8] was > 100 µM each time. Further, the TGI in [9] was > 100 µM.

With `O=S(=O)(CCBr)CCBr`, the TGI came out at 15 µM in [10]; 5.02 µM in assay [2]; 6.72 µM in [11]; 10.5 µM in assay [7]; 9.2 µM in assay [8]; 14.8 µM in [9].

As for `O=C(Nc1cccc(-n2ccc3c(NC(=O)c4ccccc4)nccc32)c1)Nc1cc(C(F)(F)F)cc(C(F)(F)F)c1`, the GI50 in assay [1] was 1.23 µM; in [3], 1.48 µM; in assay [5], 1.68 µM; in assay [6], 1.42 µM; in [7], 1.69 µM; in [8], 3.09 µM. The GI50 in [9] was 1.53 µM. Moreover, the TGI came to 3.21 µM in [1]; 7.61 µM in assay [3]; 7.97 µM in assay [5]; 4.73 µM in assay [6]; 6.31 µM in assay [7]; 35.8 µM in assay [8]. Besides, the TGI in assay [9] is > 50 µM.

As for `COc1ccc(-n2cnnc2-c2nsc3ccccc23)cc1`, the TGI in assay [10], in assay [3], in [11], in [7] and in assay [12] was > 100 µM each time.

`O=C(O)c1cc2ccccc2c(N=Nc2ccc(S(=O)(=O)Nc3nccs3)cc2)c1O`: the TGI in [1], in assay [2], in [3], in [4], in assay [5] and in [6] was > 100 µM throughout. The TGI in assay [7] and in assay [8] was > 100 µM in each case.

In the case of `Nc1nc(SCc2ccc([N+](=O)[O-])cc2)nc2c1ncn2C1OC(COP(=O)(O)O)C(O)C1O` (centres undefined), the TGI in assay [3], in assay [11], in assay [7], in assay [12], in assay [8] and in assay [9] was > 100 µM throughout.

For `Cc1ccc(N=N/C(=N\NC(=O)c2ccc(C)cc2)c2ccc(N(CCC#N)CCC#N)cc2C)cc1`, the TGI in assay [1] was 65.8 µM; in assay [2], > 100 µM; in [3], > 100 µM; in assay [4], > 100 µM; in [5], > 100 µM; in [6] it was > 100 µM. For the same compound, the TGI in assay [9] was > 100 µM.

With `CC(C)OP(=O)(OC(C)C)/C(I)=N/Nc1ccc([N+](=O)[O-])cc1`, the TGI in [10], in [3], in [11], in [7], in assay [12] and in assay [8] was > 100 µM each time. Further, the TGI in assay [9] was > 100 µM.

Take `CC(NC(=O)C(C)NC(=O)C(N)CCP(C)(=O)O)C(=O)O` (centres undefined): the TGI in [10], in [2], in assay [7], in assay [12], in [8] and in assay [9] was > 100 µM in each case.

`CC1=Nc2nc(Cl)cn2C(=O)C1(Cl)Cl`: the TGI in [1], in [2], in assay [3], in [4], in assay [5] and in assay [6] was > 10 µM throughout. Further, the TGI in assay [7], in assay [8] and in assay [9] was > 10 µM in each case.
